Consider seven molecules from patent US7691825B2, “Adenosine A2B receptor agonists” (King Pharmaceuticals Research and Development, Inc., priority 2006, dated 2010).

Data set [1] concerns the target T1, human A3 receptors in CHO cells (Homo sapiens, UniProt P0DMS8).
T1 construct: expressed in transfected cells; host or cells: CHO cells
T1 sequence (P0DMS8 1-318): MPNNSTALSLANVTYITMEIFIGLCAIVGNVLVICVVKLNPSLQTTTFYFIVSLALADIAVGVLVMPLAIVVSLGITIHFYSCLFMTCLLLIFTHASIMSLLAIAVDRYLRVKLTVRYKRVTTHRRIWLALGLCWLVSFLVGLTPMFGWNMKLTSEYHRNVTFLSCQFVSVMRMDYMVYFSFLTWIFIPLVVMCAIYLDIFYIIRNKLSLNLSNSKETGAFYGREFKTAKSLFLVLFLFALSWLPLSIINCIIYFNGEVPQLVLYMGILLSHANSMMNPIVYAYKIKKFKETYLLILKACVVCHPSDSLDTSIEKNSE
Put plainly: cAMP assay hA3 CHO cells. Format: cell-based. Particulars: cyclic AMP assay, mean ± s.e. mean. As to the method:
(§1) For cell preparation CHO cells transfected with human A2B or A3 receptors are washed with phosphate-buffered saline and diluted trypsin, and centrifuged for 10 min at 200 g. […] After the preincubation time at 37° C., the examined ligands (1 nM-10 μM) are added to the mixture and incubated for a further 5 min. The reaction is terminated by the addition of cold 6% trichloroacetic acid (TCA). The TCA suspension is centrifuged at 2000 g for 10 min at 4° C. and the supernatant is extracted four times with water saturated diethyl ether. […] Samples of cyclic AMP standard (0-10 pmoles) are added to each test tube containing the incubation buffer (trizma base 0.1 mM, aminophylline 8.0 mM, 2-mercaptoethanol 6.0 mM, pH 7.4) and [^3H]cyclic AMP in total volume of 0.5 mL. The binding protein previously incubated at 4° C. for 150 min, and after the addition of charcoal is centrifuged at 2000 g for 10 min. The clear supernatant is counted in a Beckman scintillation counter.
A general note: cAMP levels reflect the balance of adenylyl cyclase and phosphodiesterase activity.

In data set [2] the target is T2, hA2B receptors expressed in CHO cells (Homo sapiens, UniProt P29275).
T2 construct: expressed in transfected cells; host or cells: CHO cells
T2 sequence (P29275 1-332): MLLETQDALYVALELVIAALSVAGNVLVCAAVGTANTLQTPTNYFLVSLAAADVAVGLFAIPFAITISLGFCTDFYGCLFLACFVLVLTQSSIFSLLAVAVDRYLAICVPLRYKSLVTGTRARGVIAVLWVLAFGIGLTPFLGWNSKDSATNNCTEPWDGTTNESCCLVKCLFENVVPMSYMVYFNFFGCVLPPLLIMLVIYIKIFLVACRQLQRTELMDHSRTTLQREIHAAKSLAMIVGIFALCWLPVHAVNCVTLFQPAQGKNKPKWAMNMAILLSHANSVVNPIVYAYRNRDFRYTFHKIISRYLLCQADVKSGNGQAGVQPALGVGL
Put plainly: cAMP assay hA2B CHO cells. The settings on record: for Selectivity hA1/hA2B: ratio hA1 Ki / hA2B EC50; for Selectivity hA2A/hA2B: ratio hA2A Ki / hA2B EC50; for Selectivity hA3/hA2B: ratio hA3 IC50 / hA2B EC50; for EC50: stimulation of cAMP levels, hA2B CHO cells, mean ± s.e. mean. In kind it is cell-based. As to the method: The effects of the tested compounds may be evaluated in functional assays measuring the stimulatory capability of the ligands to increase cAMP levels in hA2B receptors expressed in CHO cells. This may done as described by Pastorin et al. in “Pyrazolo[4,3-e]-1,2,4-triazolo[1,5-c]pyrimidine derivatives as adenosine receptor antagonists.
as §1

The target of data set [3] is T3, hA1 receptors expressed in CHO cells (Homo sapiens, UniProt P30542).
T3 sequence (P30542 1-326): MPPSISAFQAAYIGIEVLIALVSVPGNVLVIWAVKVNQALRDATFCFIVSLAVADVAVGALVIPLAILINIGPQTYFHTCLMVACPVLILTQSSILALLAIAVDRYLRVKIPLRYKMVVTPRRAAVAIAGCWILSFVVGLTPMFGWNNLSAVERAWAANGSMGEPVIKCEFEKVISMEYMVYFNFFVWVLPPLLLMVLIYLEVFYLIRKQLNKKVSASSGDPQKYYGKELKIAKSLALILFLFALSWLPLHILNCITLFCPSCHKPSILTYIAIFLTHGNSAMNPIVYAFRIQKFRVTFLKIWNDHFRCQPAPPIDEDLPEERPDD
Put plainly: [3H]CHA binding hA1 CHO cells.
Protocol: (§2) The cells are grown adherently and maintained in Dulbecco's Modified Eagles Medium with nutrient mixture F12 (DMEM/F12) without nucleosides, containing 10% fetal calf serum, penicillin (100 U/mL), streptomycin (100 μg/mL), L-glutamine (2 mM) and Geneticin (G418, 0.2 mg/mL) at 37° C. in 5% CO2/95% air. […] For membrane preparation the culture medium is removed and the cells are washed with PBS and scraped off T75 flasks in ice-cold hypotonic buffer (5 mM Tris HCl, 2 mM EDTA, pH 7.4). The cell suspension is homogenized and centrifuged for 30 min at 100,000×g. The membrane pellet is re-suspended in 50 mM Tris HCl buffer pH 7.4 and incubated with 2 UI/mL of adenosine deaminase for 30 min at 37° C.
(§3) Binding of 1 nM [^3H]—CHA to hA1CHO cells (50 μg of protein/assay) is performed using 50 mM Tris HCl buffer pH 7.4 and at least 6-8 different concentrations of agonists studied for an incubation time of 150 min at 25° C. […] Non-specific binding is determined in the presence of 10 μM of CHA and is about 20% of the total binding. […] Filter bound radioactivity is measured by scintillation spectrometry after addition of 5 mL of Aquassure.
(§4) All experimental data are expressed as the mean±standard error of the mean (s.e. mean) of three or four independent experiments performed in duplicate.

Data set [4] concerns the target T4, hA2A receptors expressed in CHO cells (Homo sapiens, UniProt P29274).
T4 construct: expressed in transfected cells; host or cells: CHO cells (stably transfected, per Klotz et al. 1998); membrane preparation
The data set can be described thus: [3H]CGS21680 binding hA2A CHO cells. The settings on record: [3H]-CGS 21680, hA2A CHO cell membranes, 180 min at 25° C.; mean ± s.e. mean.
Protocol: as §2, §3, §4

[5] abbreviates: read-out: [3H]CHA binding hA1 CHO cells Ki, 1 nM [3H]-CHA, hA1 CHO cell membranes, 150 min at 25° C., mean ± s.e. mean.

Read-outs that look alike come from different tables or passages of the source.

T4 sequence (P29274 whole entry): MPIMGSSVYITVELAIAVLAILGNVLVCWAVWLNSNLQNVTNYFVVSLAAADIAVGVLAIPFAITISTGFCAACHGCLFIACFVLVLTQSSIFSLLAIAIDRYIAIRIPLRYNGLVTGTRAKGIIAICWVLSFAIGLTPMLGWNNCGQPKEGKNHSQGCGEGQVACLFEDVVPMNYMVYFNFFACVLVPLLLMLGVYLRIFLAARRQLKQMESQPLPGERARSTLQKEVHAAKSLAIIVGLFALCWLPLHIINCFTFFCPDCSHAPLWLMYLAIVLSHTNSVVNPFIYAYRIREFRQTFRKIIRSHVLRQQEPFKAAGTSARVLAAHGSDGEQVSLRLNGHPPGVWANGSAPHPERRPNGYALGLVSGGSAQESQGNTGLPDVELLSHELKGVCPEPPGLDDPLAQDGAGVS

`CCNC(=O)[C@H]1O[C@@H](n2cnc3c(NNC(=O)Cc4cccs4)nc(Cl)nc32)[C@H](O)[C@@H]1O` [Compound 20b, (2S, 3S, 4R, 5R)-5-{2-Chloro-6-[N′-(2-thiophene-2-yl-acetyl)-hydrazino]-9H-purin-9-yl}-3,4-dihydroxy-tetrahydrofuran-2-carboxylic acid ethylamide]: the melting point – broadly, the temperature, or range, at which the solid turns liquid – fell in the range of 153 to 154 °C. For the same molecule, the IC50 (in general, the concentration that inhibits the measured activity by half) in data set [1] came to 0.067 ± 0.004 µM. In data set [2], the “Selectivity hA1/hA2B” value was found to be 0.10, the “Selectivity hA2A/hA2B” value is 1.05, the “Selectivity hA3/hA2B” value is 0.11 and the concentration giving a half-maximal response (EC50) (usually the midpoint of the concentration-response curve) worked out at 0.603 ± 0.031 µM. In addition, the Ki – broadly, the dissociation constant of the complex between target and ligand, obtained from inhibition or displacement – in data set [3] (setting [5]) is 0.062 ± 0.004 µM. In addition, the Ki in data set [4] came out at 0.633 ± 0.06 µM.

Consider `CCNC(=O)[C@H]1O[C@@H](n2cnc3c(NNC(=O)c4ccsc4)nc(Cl)nc32)[C@H](O)[C@@H]1O` [Compound 21b, (2S, 3S, 4R, 5R)-5-{2-Chloro-6-[N′-(thiophene-3-carbonyl)-hydrazino]-9H-purin-9-yl}-3,4-dihydroxy-tetrahydrofuran-2-carboxylic acid ethylamide], for which the melting point lay within 249 to 250 °C. The same molecule gave an IC50 in data set [1] greater than 1 µM. For the same molecule, in data set [2], the “Selectivity hA1/hA2B” value is 2.07; the “Selectivity hA2A/hA2B” value is greater than 2.22; the “Selectivity hA3/hA2B” value is listed as greater than 2.22; the midpoint of the response, the EC50, lay at 0.45 ± 0.029 µM. In data set [3] (setting [5]), the Ki is 0.933 ± 0.076 µM. In data set [4], this molecule had an inhibitory constant (Ki) greater than 1 µM.

In turn, `CCNC(=O)[C@H]1O[C@@H](n2cnc3c(NNC(=O)c4cccs4)nc(Cl)nc32)[C@H](O)[C@@H]1O` [Compound 22b, (2S, 3S, 4R, 5R)-5-{2-Chloro-6-[N′-(thiophene-2-carbonyl)-hydrazino]-9H-purin-9-yl}3,4-dihydroxy-tetrahydrofuran-2-carboxylic acid ethylamide] registered a melting point of 189 to 190 °C. In data set [1], this molecule gave an IC50 greater than 1 µM. Also, in data set [2], the “Selectivity hA1/hA2B” value came to 3.68, the “Selectivity hA2A/hA2B” value was greater than 5.00, the “Selectivity hA3/hA2B” value was greater than 5.00 and the EC50 was determined as 0.2 ± 0.02 µM. For the same molecule, the Ki in data set [3] (setting [5]) was determined as 0.737 ± 0.076 µM. Moreover, in data set [4], the Ki was greater than 1 µM.

With `CCNC(=O)[C@H]1O[C@@H](n2cnc3c(NNC(=O)c4sccc4C)nc(Cl)nc32)[C@H](O)[C@@H]1O` [Compound 23b], the melting point lay in the range of 160 to 161 °C. Moreover, the IC50 in data set [1] is greater than 1 µM. For the same molecule, in data set [2], the “Selectivity hA1/hA2B” value was greater than 2.94, the “Selectivity hA2A/hA2B” value is on record as greater than 2.94, the “Selectivity hA3/hA2B” value is greater than 2.94 and the half-maximal effective concentration (EC50) amounted to 0.34 ± 0.035 µM. In data set [3], this molecule registered a Ki greater than 1 µM. The same molecule returned an inhibition constant (Ki) in data set [4] greater than 1 µM.

As for `CCNC(=O)[C@H]1O[C@@H](n2cnc3c(NNC(=O)c4ccc[nH]4)nc(Cl)nc32)[C@H](O)[C@@H]1O` [Compound 24b, (2S, 3S, 4R, 5R)-5-{2-Chloro-6-[N′-(1H-pyrrole-2-carbonyl)-hydrazino]-9H-purin-9-yl}-3,4-dihydroxy-tetrahydrofuran-2-carboxylic acid ethylamide], the melting point fell in the range of 230 to 231 °C. For the same molecule, in data set [1], the IC50 is greater than 1 µM. In addition, in data set [2], the “Selectivity hA1/hA2B” value amounted to 1.70, the “Selectivity hA2A/hA2B” value is on record as greater than 2.78, the “Selectivity hA3/hA2B” value is reported as greater than 2.78 and the EC50 came out at 0.359 ± 0.036 µM. Further, the Ki in data set [3] (setting [5]) was determined as 0.61 ± 0.032 µM. In data set [4], this molecule displayed a Ki greater than 1 µM.

In turn, `CCNC(=O)[C@H]1O[C@@H](n2cnc3c(NNC(=O)c4cc(C)on4)nc(Cl)nc32)[C@H](O)[C@@H]1O` [Compound 25b, (2S, 3S, 4R, 5R)-5-{2-Chloro-6-[N′-(5-methyl-isoxazole-3-carbonyl)-hydrazino]-9H-purin-9-yl}-3,4-dihydroxy-tetrahydrofuran-2-carboxylic acid ethylamide] returned a melting point of 182 to 183 °C. Also, the IC50 in data set [1] is greater than 1 µM. Besides, the concentration giving a half-maximal response (EC50) in data set [2] was greater than 1 µM. The molecule also displayed an inhibition constant (Ki) in data set [3] greater than 1 µM. For the same molecule, the Ki in data set [4] is greater than 1 µM.

`CCNC(=O)[C@H]1O[C@@H](n2cnc3c(NNC(=O)c4cc(-c5ccccc5)on4)nc(Cl)nc32)[C@H](O)[C@@H]1O` [Compound 26b, (2S, 3S, 4R, 5R)-5-{2-Chloro-6-[N′-(5-phenyl-isoxazole-3-carbonyl)-hydrazino]-9H-purin-9-yl}-3,4-dihydroxy-tetrahydrofuran-2-carboxylic acid ethylamide]: the melting point fell in the range of 169 to 170 °C. The same molecule showed an IC50 in data set [1] greater than 1 µM. The EC50 in data set [2] was greater than 1 µM. In data set [3], this molecule showed a Ki greater than 1 µM. For the same molecule, the Ki in data set [4] is greater than 1 µM.
